Test: Short-term stability in spiked pooled human plasma (bench-top, 4 °C, 56 °C)

Structure (SMILES)	Short-time stability (1h, 56°C) Accuracy [%] (validation standard 2xLLOV)	Short-time stability (24h, 4°C, without daylight) Accuracy [%] (validation standard 2xLLOV)	Short-time stability (24h, RT, with daylight) Accuracy [%] (validation standard 2xLLOV)	Short-time stability (24h, RT, without daylight) Accuracy [%] (validation standard 2xLLOV)	Short-time stability (1h, 56°C) Accuracy [%] (validation standard LLOV)	Short-time stability (24h, 4°C, without daylight) Accuracy [%] (validation standard LLOV)	Short-time stability (24h, RT, with daylight) Accuracy [%] (validation standard LLOV)	Short-time stability (24h, RT, without daylight) Accuracy [%] (validation standard LLOV)	Short-time stability (1h, 56°C) Accuracy [%] (validation standard MOV)	Short-time stability (24h, 4°C, without daylight) Accuracy [%] (validation standard MOV)	Short-time stability (24h, RT, with daylight) Accuracy [%] (validation standard MOV)	Short-time stability (24h, RT, without daylight) Accuracy [%] (validation standard MOV)	Short-time stability (1h, 56°C) Accuracy [%] (validation standard ULOV)	Short-time stability (24h, 4°C, without daylight) Accuracy [%] (validation standard ULOV)	Short-time stability (24h, RT, with daylight) Accuracy [%] (validation standard ULOV)	Short-time stability (24h, RT, without daylight) Accuracy [%] (validation standard ULOV)
CCN1CCN(Cc2ccc(Nc3ncc(F)c(-c4cc(F)c5nc(C)n(C(C)C)c5c4)n3)nc2)CC1 [Abemaciclib]	27.9%	102.9%	88.7%	87.4%	27.4%	93.7%	90.1%	88.2%	34.3%	104.5%	90.3%	91.7%	34.9%	94.4%	88.4%	87.5%
CCN(CC)CCNC(=O)c1c(C)[nH]c(/C=C2\C(=O)Nc3ccc(F)cc32)c1C [Sunitinib]	54.5%	105.9%	79.8%	83.9%	65.8%	111.2%	93.0%	98.2%	44.2%	101.2%	83.0%	86.7%	40.6%	106.4%	93.1%	93.8%
COc1cc2ncnc(Nc3ccc(F)c(Cl)c3)c2cc1NC(=O)/C=C/CN1CCCCC1 [Dacomitinib]	30.6%	94.9%	86.7%	88.5%	10.3%	90.8%	74.6%	72.7%	37.3%	97.9%	89.8%	91.1%	33.3%	92.4%	85.6%	89.1%
CS(=O)(=O)c1ccc(C(=O)Nc2ccc(Cl)c(-c3ccccn3)c2)c(Cl)c1 [Vismodegib]	63.8%	105.0%	114.6%	117.6%	34.2%	87.2%	96.1%	99.6%	65.7%	105.3%	111.1%	114.6%	54.4%	94.5%	103.5%	104.5%
CNC(=O)c1cc(Oc2ccc(NC(=O)Nc3ccc(Cl)c(C(F)(F)F)c3)cc2)ccn1 [Sorafenib]	38.6%	97.0%	85.6%	81.9%	28.2%	96.0%	83.4%	72.1%	38.4%	98.2%	89.2%	91.9%	34.6%	92.5%	91.0%	89.2%

From article PMC8699473, “An Easily Expandable Multi-Drug LC-MS Assay for the Simultaneous Quantification of 57 Oral Antitumor Drugs in Human Plasma” (Cancers, 2021)
